According to patent US20210292320A1, “FUNCTIONALIZED HETEROCYCLIC COMPOUNDS AS ANTIVIRAL AGENTS” (Enanta Pharmaceuticals, Inc., priority 2020, published 2021):

Columns and labels:
[1] = Compound induced cellular toxicity in HepG2 cells (ATPlite 1Step, total ATP levels, day 3); assay type: cell-based; conditions: human, three days, 0.5% DMSO, 50% reduction of total ATP levels relative to no drug controls
Description: At day 3, post seeding cells are treated with ATPlite 1Step according to the manufacturer's instructions.

[2] = tested on: HBV viral product accumulation in 2.2.15 cells; experiment: HBV antiviral activity in 2.2.15 cells (qPCR of cell lysates or HBsAg/HBeAg ELISA of supernatants, day 5); assay type: cell-based; conditions: Hepatitis B virus, 120 h, 5 days treatment, 0.5% DMSO, 50% reduction of viral product accumulation relative to no drug controls, irrespective of readout
Description: 2.2.15 cells are passaged upon attaining confluency in DMEM/F12 media in the presence of 10% FBS, Penn/Strep, and 250 ug/mL G418. Novel compounds are 5 fold serially diluted in DMSO and added to 96 well plates containing 35,000 cells/well at a 1:200 dilution so that the final concentration of DMSO is 0.5%. On day 5, post treatment cell lysates and supernatants are harvested for analysis.
Cells are lysed using Agilent Sidestep Lysis buffer, diluted 1:100 and quantified via quantitative real time PCR. Commercially available ELISA kits are used to quantitate the viral proteins HBsAg (Alpco) or HBeAg (US Biological) by following the manufacturer's recommended protocol after diluting samples to match the linear range of their respective assays. Irrespective of readout, compound concentrations that reduce viral product accumulation in the cell lysates or supernatants by 50% relative to no drug controls (EC50) are reported; EC50 ranges are as follows: A<0.1 μM; B 0.2-1 μM; C>1 μM.

In the case of `CC(C)(C)[C@@H]1Cn2nc(-c3ccccc3F)c(-c3ccccc3F)c2-c2cc(O)c(C(=O)O)cc21` [Example 7, (S)-6-(tert-butyl)-1,2-bis(2-fluorophenyl)-9-hydroxy-5,6-dihydropyrazolo[5,1-a]isoquinoline-8-carboxylic acid], the CC50 at 3 days [1] is reported as over 25 µM and the EC50 [2] is reported as under 0.1 µM.
Compound `CC(C)(C)[C@@H]1Cn2nc(-c3cccc(F)c3)c(-c3cccc(F)c3)c2-c2cc(O)c(C(=O)O)cc21` [Example 5, (S)-6-(tert-butyl)-1,2-bis(3-fluorophenyl)-9-hydroxy-5,6-dihydropyrazolo[5,1-a]isoquinoline-8-carboxylic acid] has an EC50 [2] of over 1 µM.
For `CC(C)(C)[C@@H]1Cn2nc(-c3cccc(F)c3)cc2-c2cc(O)c(C(=O)O)cc21` [Example 4, (S)-6-(tert-butyl)-2-(3-fluorophenyl)-9-hydroxy-5,6-dihydropyrazolo[5,1-a]isoquinoline-8-carboxylic acid], the EC50 [2] was over 1 µM.
Compound `CC(C)(C)[C@@H]1Cn2nc(-c3ccc(F)cc3)cc2-c2cc(O)c(C(=O)O)cc21` [Example 1, (S)-6-(tert-butyl)-2-(4-fluorophenyl)-9-hydroxy-5,6-dihydropyrazolo[5,1-a]isoquinoline-8-carboxylic acid] has an EC50 [2] of over 1 µM.
In the case of `CC(C)(C)[C@@H]1Cn2nc(-c3ccccc3F)cc2-c2cc(O)c(C(=O)O)cc21` [Example 3, (S)-6-(tert-butyl)-2-(2-fluorophenyl)-9-hydroxy-5,6-dihydropyrazolo[5,1-a]isoquinoline-8-carboxylic acid], the EC50 [2] is reported as over 1 µM.
For `CC(C)(C)[C@@H]1Cn2nc(-c3ccccc3)c(-c3ccccc3)c2-c2cc(O)c(C(=O)O)cc21` [Example 8, (S)-6-(tert-butyl)-9-hydroxy-1,2-diphenyl-5,6-dihydropyrazolo[5,1-a]isoquinoline-8-carboxylic acid], the CC50 at 3 days [1] was over 25 µM and the EC50 [2] was under 0.1 µM.
Compound `CC(C)(C)[C@@H]1Cn2nc(-c3ccc(F)cc3)c(-c3ccc(F)cc3)c2-c2cc(O)c(C(=O)O)cc21` [Example 6, (S)-6-(tert-butyl)-1,2-bis(4-fluorophenyl)-9-hydroxy-5,6-dihydropyrazolo[5,1-a]isoquinoline-8-carboxylic acid] has a CC50 at 3 days [1] of over 25 µM and an EC50 [2] of under 0.1 µM.
`CC(C)(C)[C@@H]1Cn2nc(-c3ccoc3)c(-c3ccoc3)c2-c2cc(O)c(C(=O)O)cc21` [Example 9, (S)-6-(tert-butyl)-1,2-di(furan-3-yl)-9-hydroxy-5,6-dihydropyrazolo[5,1-a]isoquinoline-8-carboxylic acid] gave an EC50 [2] of over 1 µM.
Work on `CC(C)(C)[C@@H]1Cn2nc(-c3ccccc3)cc2-c2cc(O)c(C(=O)O)cc21` [Example 2, (S)-6-(tert-butyl)-9-hydroxy-2-phenyl-5,6-dihydropyrazolo[5,1-a]isoquinoline-8-carboxylic acid] yielded an EC50 [2] of over 1 µM.
